Molecules are shown by their SMILES.

For the test, the target named is T1, full-length beta-Catenin (Uniprot ID P35222) (Homo sapiens, UniProt P35222).
T1 construct: 10 nM full-length beta-Catenin (Uniprot ID P35222)
T1 sequence (P35222 1-781): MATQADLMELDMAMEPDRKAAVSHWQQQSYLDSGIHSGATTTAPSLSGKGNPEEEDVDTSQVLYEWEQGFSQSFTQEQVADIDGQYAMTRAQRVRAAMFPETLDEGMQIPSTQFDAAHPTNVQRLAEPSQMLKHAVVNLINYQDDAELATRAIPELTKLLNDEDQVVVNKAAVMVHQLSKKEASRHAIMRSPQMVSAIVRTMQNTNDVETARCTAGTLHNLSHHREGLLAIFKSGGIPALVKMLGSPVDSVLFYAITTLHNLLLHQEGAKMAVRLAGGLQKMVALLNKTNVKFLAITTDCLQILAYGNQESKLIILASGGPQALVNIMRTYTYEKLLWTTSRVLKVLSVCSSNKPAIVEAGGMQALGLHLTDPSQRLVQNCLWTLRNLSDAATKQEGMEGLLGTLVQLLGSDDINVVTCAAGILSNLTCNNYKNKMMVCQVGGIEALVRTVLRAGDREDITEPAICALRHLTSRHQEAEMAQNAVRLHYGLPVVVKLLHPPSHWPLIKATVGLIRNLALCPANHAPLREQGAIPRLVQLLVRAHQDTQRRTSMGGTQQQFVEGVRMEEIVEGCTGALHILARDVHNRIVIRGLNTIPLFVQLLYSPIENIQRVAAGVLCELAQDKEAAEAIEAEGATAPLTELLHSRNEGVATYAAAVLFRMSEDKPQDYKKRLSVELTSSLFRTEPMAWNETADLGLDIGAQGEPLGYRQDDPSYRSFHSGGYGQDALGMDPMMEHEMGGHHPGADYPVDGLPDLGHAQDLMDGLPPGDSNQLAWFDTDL
The experiment in a line: Fluorescence polarization IC50 (beta-catenin / 5FAM-TCF4 10-53 competition). Type of test: binding. As to conditions: fluorescence polarization; read-out: beta-Catenin FP IC50.
In the case of `CC(=O)N1CCC[C@]12CC=CCCCC1(CCCC=CCCCOC(=O)N3CC[C@@](C(=O)N[C@@H](Cc4ccccc4)C(=O)N[C@@H](Cc4csc5ccccc45)C(=O)N[C@@H](CCCCN)C(N)=O)(C3)NC(=O)[C@H](CC(C)C)NC(=O)[C@H](Cc3ccccc3)NC(=O)[C@H](C)NC(=O)[C@H](CCCCNC(C)C)NC(=O)[C@H](CCC(N)=O)NC(=O)[C@H](CC(=O)O)NC1=O)NC(=O)[C@H](CC(C)(C)C)NC(=O)[C@H](CC(N)=O)NC2=O` (stereo partly drawn) [I-1643, Ac-PL3-Asn-Npg-B5-Asp-Gln-iPrLys-Ala-Phe-Leu-PyrS2-Phe-BztA-Lys-NH2], the half-inhibitory concentration (IC50) (in general, the midpoint of a concentration-inhibition curve) is 822 nM.

`CC(=O)N1CCC[C@]12CC=CCCCC1(CCCC=CCCCOC(=O)N3CC[C@@](C(=O)N[C@@H](Cc4ccccc4)C(=O)N[C@@H](Cc4csc5ccccc45)C(=O)N[C@@H](CCCCNC(C)C)C(N)=O)(C3)NC(=O)[C@H](CC(C)C)NC(=O)[C@H](Cc3ccccc3)NC(=O)[C@H](C)NC(=O)[C@H](CCCCNC(C)C)NC(=O)[C@H](CCC(N)=O)NC(=O)[C@H](CC(=O)O)NC1=O)NC(=O)[C@H](CC(C)(C)C)NC(=O)[C@H](CC(N)=O)NC2=O` (stereo partly drawn) [I-1645, Ac-PL3-Asn-Npg-B5-Asp-Gln-iPrLys-Ala-Phe-Leu-PyrS2-Phe-BztA-iPrLys-NH2]: the IC50 stood at 940 nM.

With `CC(=O)N1CCC[C@]12CC=CCCCC1(CCCC=CCCCOC(=O)N3CC[C@@](C(=O)N[C@@H](Cc4ccccc4)C(=O)N[C@@H](Cc4csc5ccccc45)C(=O)N[C@@H](CCO)C(N)=O)(C3)NC(=O)[C@H](CC(C)C)NC(=O)[C@H](Cc3ccccc3)NC(=O)[C@H](C)NC(=O)[C@H](CCCCNC(C)C)NC(=O)[C@H](CCC(N)=O)NC(=O)[C@H](CC(=O)O)NC1=O)NC(=O)[C@H](CC(C)(C)C)NC(=O)[C@H](CC(N)=O)NC2=O` (stereo partly drawn) [I-1646, Ac-PL3-Asn-Npg-B5-Asp-Gln-iPrLys-Ala-Phe-Leu-PyrS2-Phe-BztA-Hse-NH2], the 50% inhibitory concentration (IC50) came out at 640 nM.

`CC(=O)N1CCC[C@]12CC=CCCCC1(CCCC=CCCCOC(=O)N3CC[C@@](C(=O)N[C@@H](Cc4ccccc4)C(=O)N[C@@H](Cc4csc5ccccc45)C(=O)N[C@@H](CCC(N)=O)C(N)=O)(C3)NC(=O)[C@H](CC(C)C)NC(=O)[C@H](Cc3ccccc3)NC(=O)[C@H](C)NC(=O)[C@H](CCCCNC(C)C)NC(=O)[C@H](CCC(N)=O)NC(=O)[C@H](CC(=O)O)NC1=O)NC(=O)[C@H](Cc1ccc(O)cc1)NC(=O)[C@H](CC(N)=O)NC2=O` (stereo partly drawn) [I-1647, Ac-PL3-Asn-Tyr-B5-Asp-Gln-iPrLys-Ala-Phe-Leu-PyrS2-Phe-BztA-Gln-NH2]: the half-maximal inhibitory concentration (IC50) stood at 2350 nM.

Consider `CC(=O)N1CCC[C@]12CC=CCCCC1(CCCC=CCCCOC(=O)N3CC[C@@](C(=O)N[C@@H](Cc4ccccc4)C(=O)N[C@@H](Cc4csc5ccccc45)C(=O)N[C@@H](CCC(N)=O)C(N)=O)(C3)NC(=O)[C@H](CC(C)C)NC(=O)[C@H](CC3CCCCC3)NC(=O)[C@H](C)NC(=O)[C@H](CCCCNC(C)C)NC(=O)[C@H](CCC(N)=O)NC(=O)[C@H](CC(=O)O)NC1=O)NC(=O)[C@H](CC(C)(C)C)NC(=O)[C@H](CC(N)=O)NC2=O` (stereo partly drawn) [I-1649, Ac-PL3-Asn-Npg-B5-Asp-Gln-iPrLys-Ala-Cha-Leu-PyrS2-Phe-BztA-Gln-NH2], for which the IC50 was 2480 nM.

Turning to `CC(=O)N1CCC[C@]12CC=CCCCC1(CCCC=CCCCOC(=O)N3CC[C@@](C(=O)N[C@@H](Cc4ccccc4)C(=O)N[C@@H](Cc4csc5ccccc45)C(=O)N[C@@H](CCC(N)=O)C(N)=O)(C3)NC(=O)[C@H](CC3CCCCC3)NC(=O)[C@H](Cc3ccccc3)NC(=O)[C@H](C)NC(=O)[C@H](CCCCNC(C)C)NC(=O)[C@H](CCC(N)=O)NC(=O)[C@H](CC(=O)O)NC1=O)NC(=O)[C@H](CC(C)(C)C)NC(=O)[C@H](CC(N)=O)NC2=O` (stereo partly drawn) [I-1650, Ac-PL3-Asn-Npg-B5-Asp-Gln-iPrLys-Ala-Phe-Cha-PyrS2-Phe-BztA-Gln-NH2], the concentration for half-maximal inhibition (IC50) is 1680 nM.

In the case of `CC(=O)N1CCC[C@]12CC=CCCCC1(CCCC=CCCCOC(=O)N3CC[C@@](C(=O)N[C@@H](CC4CCCCC4)C(=O)N[C@@H](Cc4csc5ccccc45)C(=O)N[C@@H](CCC(N)=O)C(N)=O)(C3)NC(=O)[C@H](CC(C)C)NC(=O)[C@H](Cc3ccccc3)NC(=O)[C@H](C)NC(=O)[C@H](CCCCNC(C)C)NC(=O)[C@H](CCC(N)=O)NC(=O)[C@H](CC(=O)O)NC1=O)NC(=O)[C@H](CC(C)(C)C)NC(=O)[C@H](CC(N)=O)NC2=O` (stereo partly drawn) [I-1651, Ac-PL3-Asn-Npg-B5-Asp-Gln-iPrLys-Ala-Phe-Leu-PyrS2-Cha-BztA-Gln-NH2], the IC50 was 3970 nM.

As for `CC(=O)N1CCC[C@]12CC=CCCCC1(CCCC=CCCCOC(=O)N3CC[C@@](C(=O)N[C@@H](Cc4ccccc4)C(=O)N[C@@H](Cc4csc5ccccc45)C(=O)N[C@@H](CCC(N)=O)C(N)=O)(C3)NC(=O)[C@H](CCCCNC(C)C)NC(=O)[C@H](Cc3ccccc3)NC(=O)[C@H](C)NC(=O)[C@H](CCCCNC(C)C)NC(=O)[C@H](CCC(N)=O)NC(=O)[C@H](CC(=O)O)NC1=O)NC(=O)[C@H](CC(C)(C)C)NC(=O)[C@H](CC(N)=O)NC2=O` (stereo partly drawn) [I-1653, Ac-PL3-Asn-Npg-B5-Asp-Gln-iPrLys-Ala-Phe-iPrLys-PyrS2-Phe-BztA-Gln-NH2], the half-inhibitory concentration (IC50) amounted to 903 nM.

Turning to `CC(=O)N1CCC[C@]12CC=CCCCC1(CCCC=CCCCOC(=O)N3CC[C@@](C(=O)N[C@@H](Cc4ccccc4)C(=O)N[C@@H](Cc4csc5ccccc45)C(=O)N[C@@H](CCCCNC(C)C)C(N)=O)(C3)NC(=O)[C@H](CCCCNC(C)C)NC(=O)[C@H](Cc3ccccc3)NC(=O)[C@H](C)NC(=O)[C@H](CCCCNC(C)C)NC(=O)[C@H](CCC(N)=O)NC(=O)[C@H](CC(=O)O)NC1=O)NC(=O)[C@H](CC(C)(C)C)NC(=O)[C@H](CC(N)=O)NC2=O` (stereo partly drawn) [I-1654, Ac-PL3-Asn-Npg-B5-Asp-Gln-iPrLys-Ala-Phe-iPrLys-PyrS2-Phe-BztA-iPrLys-NH2], the IC50 turned out to be 2130 nM.

On to `CC(=O)N1CCC[C@]12CC=CCCCC1(CCCC=CCCCOC(=O)N3CC[C@@](C(=O)N[C@@H](Cc4ccccc4Cl)C(=O)N[C@@H](Cc4csc5ccccc45)C(=O)N[C@@H](CCC(N)=O)C(=O)N[C@@H](C)CO)(C3)NC(=O)[C@H](CC(C)C)NC(=O)[C@H](Cc3ccccc3)NC(=O)[C@H](C)NC(=O)[C@H](C)NC(=O)[C@H](Cc3cccc(C(=O)O)c3)NC(=O)[C@H](CC(=O)O)NC1=O)NC(=O)[C@H](CC(C)(C)C)NC(=O)[C@H](CC(=O)O)NC2=O` (stereo partly drawn) [I-1673, Ac-PL3-Asp-Npg-B5-Asp-3COOHF-Ala-Ala-Phe-Leu-PyrS2-2C1F-BztA-Gln-Alao1], for which the IC50 was 28 nM.

For `CC(=O)N1CCC[C@]12CC=CCCCC1(CCCC=CCCCOC(=O)N3CC[C@@](C(=O)N[C@@H](Cc4ccccc4Cl)C(=O)N[C@@H](Cc4csc5ccccc45)C(=O)N[C@@H](CCC(N)=O)C(=O)N[C@H](CO)CC(C)C)(C3)NC(=O)[C@H](CC(C)C)NC(=O)[C@H](Cc3ccccc3)NC(=O)[C@H](C)NC(=O)[C@H](C)NC(=O)[C@H](Cc3cccc(C(=O)O)c3)NC(=O)[C@H](CC(=O)O)NC1=O)NC(=O)[C@H](CC(C)(C)C)NC(=O)[C@H](CC(=O)O)NC2=O` (stereo partly drawn) [I-1676, Ac-PL3-Asp-Npg-B5-Asp-3COOHF-Ala-Ala-Phe-Leu-PyrS2-2C1F-BztA-Gln-Leuo1], the concentration for half-maximal inhibition (IC50) was 91 nM.

As to `CC(=O)N1CCC[C@]12CC=CCCCC1(CCCC=CCCCOC(=O)N3CC[C@@](C(=O)N[C@@H](Cc4ccccc4Cl)C(=O)N[C@@H](Cc4csc5ccccc45)C(=O)N[C@@H](CCC(N)=O)C(=O)N[C@H](CO)[C@@H](C)O)(C3)NC(=O)[C@H](CC(C)C)NC(=O)[C@H](Cc3ccccc3)NC(=O)[C@H](C)NC(=O)[C@H](C)NC(=O)[C@H](Cc3cccc(C(=O)O)c3)NC(=O)[C@H](CC(=O)O)NC1=O)NC(=O)[C@H](CC(C)(C)C)NC(=O)[C@H](CC(=O)O)NC2=O` (stereo partly drawn) [I-1677, Ac-PL3-Asp-Npg-B5-Asp-3COOHF-Ala-Ala-Phe-Leu-PyrS2-2C1F-BztA-Gln-Thro1], the 50% inhibitory concentration (IC50) is 17 nM.

With `CC(=O)N1CCC[C@]12CC=CCCCC1(CCCC=CCCCOC(=O)N3CC[C@@](C(=O)N[C@@H](Cc4ccsc4)C(=O)N[C@@H](Cc4csc5ccccc45)C(=O)N[C@@H](CCC(N)=O)C(=O)N[C@@H](C)CO)(C3)NC(=O)[C@H](CC(C)C)NC(=O)[C@H](Cc3ccccc3)NC(=O)[C@H](C)NC(=O)[C@H](C)NC(=O)[C@H](CN(CC(=O)O)CC(F)(F)F)NC(=O)[C@H](CC(=O)O)NC1=O)NC(=O)[C@H](CC(C)(C)C)NC(=O)[C@H](CC(=O)O)NC2=O` (stereo partly drawn) [I-1679, Ac-PL3-Asp-Npg-B5-Asp-TfeGA-Ala-Ala-Phe-Leu-PyrS2-3Thi-BztA-Gln-Alao1], the IC50 amounted to 17.5 nM.

On to `CC(=O)N1CCC[C@]12CC=CCCCC1(CCCC=CCCCOC(=O)N3CC[C@@](C(=O)N[C@@H](Cc4ccsc4)C(=O)N[C@@H](Cc4csc5ccccc45)C(=O)N[C@@H](CCC(N)=O)C(=O)N[C@H](CO)CC(C)C)(C3)NC(=O)[C@H](CC(C)C)NC(=O)[C@H](Cc3ccccc3)NC(=O)[C@H](C)NC(=O)[C@H](C)NC(=O)[C@H](CN(CC(=O)O)CC(F)(F)F)NC(=O)[C@H](CC(=O)O)NC1=O)NC(=O)[C@H](CC(C)(C)C)NC(=O)[C@H](CC(=O)O)NC2=O` (stereo partly drawn) [I-1682, Ac-PL3-Asp-Npg-B5-Asp-TfeGA-Ala-Ala-Phe-Leu-PyrS2-3Thi-BztA-Gln-Leuo1], for which the IC50 is 41 nM.
